# From US20100144714A1, “DERIVATIVES OF IMIDAZO PYRIMIDO AND DIAZEPINE PYRIMIDINE-DIONE, AND USE THEREOF AS A DRUG” (SOCIETE DE CONSEILS DE RECHERCHES ET D'APPLICATIONS …, priority 2006, published 2010)
# pKi: −log10 of the molar value.
# Molecular target: T1, human CB2 receptors (Homo sapiens, UniProt P34972)
# T1 construct: expressed in transfected cells
# Assay: Affinity for the human CB2 cannabinoid receptors: inhibition of [3H]-CP55940 binding to transfected CHO-K1 cell membranes
# Conditions: [3H]-CP55940 (1 nM), CHO-K1 membranes expressing human CB2; Cheng-Prusoff corrected; x = Ki below 50 nM
# Experimental: The affinity of the compounds of the present invention for the different sub-types of cannabinoid receptors was measured according to procedures analogous to those described hereafter for the human CB2 receptor.
# Study of the Affinity of the Compounds for the Human CB2 Cannabinoid Receptors
# The affinity of the compounds of the invention for the human CB2 receptors is determined by measuring the inhibition of the binding of [^3H]-CP55940 to transfected CHO-K1 cell membrane preparations.
# The CHO-K1 cells expressing the human CB2 receptors in a stable fashion are cultured in an RPMI 1640 medium containing 10% foetal calf serum, 2 mM of glutamine, 100 U/ml of penicillin, 0.1 mg/ml of streptomycin and 0.5 mg/ml of G418. The cells are collected with 0.5 mM of EDTA and centrifuged at 500 g for 5 minutes at 4° C. The pellet is re-suspended in phosphate buffered saline medium (PBS) and centrifuged at 500 g for 5 minutes at 4° C. The pellet is re-suspended in a Tris 50 mM buffer medium at pH 7.4 and centrifuged at 500 g for 5 minutes at 4° C. The cells are lysed by sonication and centrifuged at 39,000 g for 10 minutes at 4° C. The pellet is re-suspended in the Tris 50 mM buffer medium at pH 7.4 and centrifuged at 50,000 g for 10 minutes at 4° C. The membranes obtained in this last pellet are stored at −80° C.
# Measurement of the competitive inhibition of the binding of the [^3H]-CP55940 to the CB2 receptors is carried out in duplicate using 96-well polypropylene plates. The cell membranes (10 μg of proteins/well) are incubated with the [^3H]-CP55940 (1 nM) for 60 minutes at 25° C. in a Tris-HCl 50 mM buffer medium, pH 7.4, comprising 0.1% bovine serum albumin (BSA), 5 mM of MgCl2, and 50 μg/ml of bacitracin.
# The bound [^3H]-CP55940 is separated from the free [^3H]-CP55940 by filtration through GF/C glass fibre filter plates (Unifilter, Packard) pre-impregnated with 0.1% polyethylenimine (P.E.I.), using a Filtermate 196 (Packard). The filters are washed with Tris-HCl 50 mM buffer, pH 7.4 at 0-4° C. and the radioactivity present is determined using a counter (Packard Top Count).
# The specific binding is obtained by subtracting the non-specific binding (determined in the presence of 0.1 μM of WIN55212-2 from the total binding). The data are analyzed by computer-assisted non-linear regression (MDL). For each test, a Cheng-Prusoff correction is made in order to convert the IC50 to the inhibition constant, Ki.
# where [L] is the concentration of the radioligand used in the test and Kd is the radioligand equilibrium dissociation constant.
# T1 sequence (P34972 whole entry): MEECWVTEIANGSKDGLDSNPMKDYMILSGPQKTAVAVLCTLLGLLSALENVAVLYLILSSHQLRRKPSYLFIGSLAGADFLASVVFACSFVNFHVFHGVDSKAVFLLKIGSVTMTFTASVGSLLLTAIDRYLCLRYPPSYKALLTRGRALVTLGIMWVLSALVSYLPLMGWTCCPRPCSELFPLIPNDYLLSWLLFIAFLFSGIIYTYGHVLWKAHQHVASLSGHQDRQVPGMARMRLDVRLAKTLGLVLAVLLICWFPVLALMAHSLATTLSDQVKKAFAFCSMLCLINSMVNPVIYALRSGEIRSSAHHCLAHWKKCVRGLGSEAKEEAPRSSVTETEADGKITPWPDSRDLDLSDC
row,SMILES,pKi
1,CN1CCN(c2ccc(CN3C(=O)C(Cc4ccccc4)n4c3nc3ccccc3c4=O)cc2)CC1 (stereo not shown) [Example 12],> 7.30
2,CN1CCN(c2ccc(CN3C(=O)CC(C4CCCCC4)n4c3nc3ccccc3c4=O)cc2)CC1 (stereo not shown) [Example 45],> 7.30
3,CN1CCN(c2ccc(CN3C(=O)CC(C)(C)n4c3nc3ccccc3c4=O)cc2)CC1 [Example 35],> 7.30
4,CN1CCN(c2ccc(CN3C(=O)C4(Cc5ccccc5C4)n4c3nc3ccccc3c4=O)cc2)CC1 [Example 17],> 7.30
5,CC(C)CC1CC(=O)N(Cc2ccc(N3CCN(C)CC3)cc2)c2nc3ccccc3c(=O)n21 (stereo not shown) [Example 43],> 7.30
6,CC(C)C[C@H]1CC(=O)N(Cc2ccc(N3CCN(C)CC3)cc2)c2nc3ccccc3c(=O)n21 [Example 38],> 7.30
7,CN1CCN(c2ccc(CN3C(=O)C(C4CCCCC4)n4c3nc3ccccc3c4=O)cc2)CC1 (stereo not shown) [Example 5],> 7.30
8,CN1CCN(c2ccc(CN3C(=O)C(c4ccc(-c5ccccc5)cc4)n4c3nc3ccccc3c4=O)cc2)CC1 (stereo not shown) [Example 2],> 7.30

# Second part, the compound after the results:
row,pKi,SMILES
1,> 7.30,CN1CCN(c2ccc(CN3C(=O)C(CCC4CCCCC4)n4c3nc3ccccc3c4=O)cc2)CC1 (stereo not shown) [Example 4]
2,> 7.30,CN1CCN(c2ccc(CN3C(=O)CC(c4ccccc4)n4c3nc3ccccc3c4=O)cc2)CC1 (stereo not shown) [Example 44]
3,> 7.30,CN1CCN(c2ccc(CN3C(=O)C(c4ccc5ccccc5c4)n4c3nc3ccccc3c4=O)cc2)CC1 (stereo not shown) [Example 8]
4,> 7.30,CN1CCN(c2ccc(CN3C(=O)CC(CCc4ccccc4)n4c3nc3ccccc3c4=O)cc2)CC1 (stereo not shown) [Example 48]
5,> 7.30,CN1CCN(c2ccc(CN3C(=O)CC(Cc4ccccc4)n4c3nc3ccccc3c4=O)cc2)CC1 (stereo not shown) [Example 46]
6,> 7.30,CN1CCN(c2ccc(CN3C(=O)C(CC4CCCCC4)n4c3nc3ccccc3c4=O)cc2)CC1 (stereo not shown) [Example 1]
7,> 7.30,CCCCC1(CCCC)C(=O)N(Cc2ccc(N3CCN(C)CC3)cc2)c2nc3ccccc3c(=O)n21 [Example 31]
8,> 7.30,CN1CCN(c2ccc(CN3C(=O)C(C)(C)Cn4c3nc3ccccc3c4=O)cc2)CC1 [Example 37]
